One experiment deals with cells which regularly divide in culture (e.g. cancer cells). Put plainly: cell based antimitotic (mitotic arrest) assay using antibodies specific for mitotic cells. Particulars: cell based mitotic assay. The source says:
Methods suitable for assaying antimitotic activity of compounds of this invention or compounds used as precursors, may be based on the use of antibodies specific for mitotic cells, such as those described in the international patent application published Apr. 1, 1999 under WO 99/15157 or the assay described in WO 01/38339. Such an assay will typically employ cells which regularly divide in culture (e.g. cancer cells). A known antimitotic compound such as nocodazole may be used as a control. In the assay, determination of the cells which proceed to mitosis is carried out using any of the known immunological methods by employing antibodies which have specificity for mitotic cells. […] Other examples are the monoclonal antibodies recognizing phospho-epitopes in the paired helical filament proteins (PHF) found in brain tissue of patients suffering from Alzheiner's disease as described in: PCT International Application published Jul. 4, 1996 under No. WO 96/20218; and, Vincent et al. (1996) “The Journal of Cell Biology”, 132:413–425. TG-3 antibody described in the latter two references may be obtained from Albert Einstein College of Medicine of Yeshiva University, Bronx, N.Y. This antibody is highly specific for mitotic cells and functions in ELISA.
Immunological methods useful for determination of mitotic cells in an assay include any method for determining antibody-antigen binding, including: immunocytochemistry (e.g. immunofluorescence), flow cytometry, immunoblotting, and ELISA, including those described in Vincent, I. et al. [supra]. High throughput testing of samples may be readily achieved by use of the ELISA or the ELICA assays described in WO 01/38339.
In turn, 2′3′-dihdro-eleutherobin [Compound 10] yielded an IC50 of 20000 nM.

As for “5,6,11β,12-tetrahydro eleutherobin [Compound 9]”, the IC50 worked out at 200 nM.

Compound `CCO[C@]12C=C[C@](C)(O1)[C@@H](OC(=O)/C=C/c1cn(C)cn1)C[C@H]1C(CO)=CC[C@H](C(C)C)[C@H]1/C=C\2COC1OCC(O)C(O)C1OC(C)=O` (stereo partly drawn) [Compound 7, 17-hydroxyeleutheside] came in with an IC50 of 20 nM.

Consider `CO[C@]12CC[C@](C)(O1)[C@@H](OC(=O)CCc1cn(C)cn1)C[C@@H]1[C@H](/C=C\2COC2OCC(O)C(O)C2OC(C)=O)[C@@H](C(C)C)CC[C@@H]1C` (stereo partly drawn) [Compound 8, hexahydroeleutherobin], for which the IC50 was more than 10000 nM.

For `CO[C@]12C=C[C@](C)(O1)[C@@H](OC(=O)/C=C/c1cn(C)cn1)C[C@H]1C(C)=CC[C@H](C(C)C)[C@H]1/C=C\2COC1OCC(O)C(O)C1OC(C)=O` (stereo partly drawn) [eleutherobin, reference compound], inhibition was half-maximal at 20 nM (IC50).

Still in this experiment, the particulars now being: compared with eleutherobin.
As for `CO[C@]12CC[C@](C)(O1)[C@@H](OC(=O)CCc1cn(C)cn1)C[C@@H]1[C@H](/C=C\2COC2OCC(O)C(O)C2OC(C)=O)[C@@H](C(C)C)CC[C@@H]1C` (stereo partly drawn) [Compound 8, hexahydroeleutherobin], the “antimitotic activity relative to eleutherobin (fold less active)” value is given as “more than five thousand fold less active than eleutherobin”.

In general, IC50 refers to the concentration that inhibits the measured activity by half. Read a low IC50 as greater potency in that assay.

The values above are taken from patent US7067494B2, “Antimitotic eleuthesides” (The University of British Columbia, priority 2001, dated 2006).
